Measured values as given in BindingDB's records for doi:10.1016/j.bmcl.2013.02.084 (Astrazeneca, 2013).

How the values were obtained:
[1] = molecular target: 2-acylglycerol O-acyltransferase 2 (human) (UniProt Q3SYC2); experiment: Inhibition of human recombinant MGAT2 expressed in insect cell membrane using 2-oleoyl-sn-glycerol and oleoyl coenzyme A as substrate after 40 mins by Ellmans assay based rapidfire LCMS analysis
[2] = molecular target: 2-acylglycerol O-acyltransferase 2 (mouse); experiment: Inhibition of mouse recombinant MGAT2 expressed in insect cell membrane using 2-oleoyl-sn-glycerol and oleoyl coenzyme A as substrate after 40 mins by Ellmans assay based rapidfire LCMS analysis
[3] = molecular target: 2-acylglycerol O-acyltransferase 1 (human) (UniProt Q96PD6); experiment: Inhibition of human recombinant MGAT1 expressed in insect cell membrane using 2-oleyl-sn-glycerol and [14C]-oleyl-coenzyme A as substrate after 10 to 15 mins by liquid scintillation counting analysis
Chain of 2-acylglycerol O-acyltransferase 1 (human) (Q96PD6 whole entry, looked up): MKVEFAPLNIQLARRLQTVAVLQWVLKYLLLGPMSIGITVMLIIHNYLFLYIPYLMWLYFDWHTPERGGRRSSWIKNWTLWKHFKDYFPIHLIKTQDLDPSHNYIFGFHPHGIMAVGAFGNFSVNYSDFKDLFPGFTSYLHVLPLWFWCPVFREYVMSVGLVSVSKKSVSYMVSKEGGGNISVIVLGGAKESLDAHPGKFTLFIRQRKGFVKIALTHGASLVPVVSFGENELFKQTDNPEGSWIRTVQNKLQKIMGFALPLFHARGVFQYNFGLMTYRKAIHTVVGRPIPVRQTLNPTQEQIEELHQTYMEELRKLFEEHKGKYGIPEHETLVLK

[4] = Inhibition of human recombinant MGAT3 expressed in insect cell membrane using 2-oleyl-sn-glycerol and [14C]-oleyl-coenzyme A as substrate after 10 to 15 mins by liquid scintillation counting analysis

Chain of 2-acylglycerol O-acyltransferase 2 (human) (Q3SYC2 whole entry, looked up): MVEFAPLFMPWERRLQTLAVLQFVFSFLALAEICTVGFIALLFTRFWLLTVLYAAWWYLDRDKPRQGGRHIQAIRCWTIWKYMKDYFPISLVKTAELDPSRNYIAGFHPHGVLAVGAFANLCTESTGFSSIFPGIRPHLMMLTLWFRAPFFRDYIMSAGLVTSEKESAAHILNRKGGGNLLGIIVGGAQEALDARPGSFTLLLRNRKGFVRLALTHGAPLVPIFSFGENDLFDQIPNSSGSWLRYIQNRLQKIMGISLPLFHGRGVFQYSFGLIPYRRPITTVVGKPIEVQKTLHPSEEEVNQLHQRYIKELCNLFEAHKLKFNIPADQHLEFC

| Structure (SMILES) | IC50 [1] [nM] | other results |
| --- | --- | --- |
| CCC1(C)NC(=O)c2cc(S(=O)(=O)N(C)c3ccccc3)ccc2NC1=O (stereo unspecified) | > 100000 |  |
| CCC1(C)NC(=O)c2cc(S(=O)(=O)NC3CCCCC3)ccc2NC1=O (stereo unspecified) | 5010 |  |
| CCC1(C)NC(=O)c2cc(NS(=O)(=O)c3ccccc3)ccc2NC1=O (stereo unspecified) | > 100000 |  |
| CCC1(C)NC(=O)c2cc(S(=O)(=O)Nc3cccc(Cl)c3)ccc2NC1=O (stereo unspecified) | 2000 |  |
| CCC1(C)C(=O)Nc2ccc(S(=O)(=O)Nc3ccc(F)cc3F)cc2C(=O)N1C (stereo unspecified) | 7940 | IC50 [2]: 631 nM |
| CCC1(C)NC(=O)c2cc(S(=O)(=O)Nc3ccccc3Cl)ccc2NC1=O (stereo unspecified) | 63 | IC50 [3]: 158 nM |
| CCC1(CC)NCc2cc(S(=O)(=O)Nc3ccc(F)cc3F)ccc2NC1=O | 251 |  |
| CCC1(C)NC(=O)c2cc(S(=O)(=O)Nc3ccc(Cl)cc3)ccc2N(C)C1=O (stereo unspecified) |  | IC50 [3]: 398 nM |
| CCC1(C)NC(=O)c2cc(S(=O)(=O)Nc3ccc(OC)cc3)ccc2NC1=O (stereo unspecified) |  | IC50 [3]: 32 nM |
| CCC1(C)NC(=O)c2cc(S(=O)(=O)Nc3ccc(Cl)cc3)ccc2NC1=O (stereo unspecified) | 25 | IC50 [2]: 4 nM; IC50 [4]: 398 nM; IC50 [3]: 50 nM |
| CCC1(C)NC(=O)c2cc(S(=O)(=O)Nc3ccccc3)ccc2NC1=O (stereo unspecified) |  | IC50 [3]: 501 nM |
| CCCC1(C)NC(=O)c2cc(S(=O)(=O)Nc3ccc(F)cc3F)ccc2NC1=O (stereo unspecified) | 50 |  |
| O=C1NC2(CCC2)C(=O)Nc2ccc(S(=O)(=O)Nc3ccc(Cl)cc3)cc21 | 79 |  |
| O=C(Nc1ccc(Cl)cc1)c1ccc2c(c1)C(=O)NC1(CCC1)C(=O)N2 | > 100000 |  |
| CC1(C)COc2ccc(S(=O)(=O)Nc3ccc(Cl)cc3)cc2C(=O)N1 | 2000 |  |
| O=C1NC2(CCCC2)C(=O)Nc2ccc(S(=O)(=O)Nc3ccc(Cl)cc3)cc21 | 50 |  |
| CCC1(CC)CNc2ccc(S(=O)(=O)Nc3ccc(F)cc3F)cc2C(=O)N1 | 1.6 |  |
| CCC1NC(=O)c2cc(S(=O)(=O)Nc3ccccc3)ccc2NC1=O (stereo unspecified) | 5010 |  |
| CCC1(CC)NC(=O)c2cc(S(=O)(=O)Nc3ccc(F)cc3F)ccc2NC1=O | 3.2 |  |
| CCC1(CC)CNc2ccc(S(=O)(=O)Nc3ccc(F)cc3F)cc2CN1 | 316 |  |
| CCC1(C)NC(=O)c2cc(S(=O)(=O)NCc3ccccc3)ccc2NC1=O (stereo unspecified) | 7940 |  |
